Measured values: patent publication US12447146B2, “Topical composition comprising tacrolimus” (MC2 Therapeutics Limited, priority 2016, dated 2025)

Experiment: Solubility of tacrolimus in oil solvents measured by HPLC
Type: physicochemical
Procedure: In this Example, the solubility of tacrolimus in various oil solvents was measured by HPLC.
Approximately 40 mg of tacrolimus was weighed and a known quantity (1-2 g) of oil was added and stirred for 5 hours at room temperature. […] If the tacrolimus appeared to be fully dissolved in under 10 g of oil the sample was then placed at 4° C. overnight. If the tacrolimus precipitated out after cold storage further oil was added and the above steps were repeated until dissolved or the 10 g of oil had been added. All samples were then centrifuged to ensure any non-dissolved tacrolimus was removed and the supernatant analysed by HPLC as described in Example 1.

SMILES: C=CC[C@@H]1/C=C(\C)C[C@H](C)C[C@H](OC)[C@H]2O[C@@](O)(C(=O)C(=O)N3CCCC[C@H]3C(=O)O[C@H](/C(C)=C/[C@@H]3CC[C@@H](O)[C@H](OC)C3)[C@H](C)[C@@H](O)CC1=O)[C@H](C)C[C@@H]2OC [tacrolimus]
- Solubility (% wt) (tacrolimus in Capric caprylic trigylcerides): 0.44 % wt
- Solubility (% wt) (tacrolimus in Castor oil): 1.44 % wt
- Solubility (% wt) (tacrolimus in Cyclomethicone): 0.004 % wt
- Solubility (% wt) (tacrolimus in Dibutyl adipate, room temperature, then 4° C. overnight, *assay within 95% of theoretical maximum, likely solubility greater than stated): 3.24* % wt
- Solubility (% wt) (tacrolimus in Diethyl sebacate, room temperature, then 4° C. overnight, *assay within 95% of theoretical maximum, likely solubility greater than stated): 3.26* % wt
- Solubility (% wt) (tacrolimus in Diisopropyl adipate, room temperature, then 4° C. overnight, *assay within 95% of theoretical maximum, likely solubility greater than stated): 3.08* % wt
- Solubility (% wt) (tacrolimus in Dimethicone): 0.004 % wt
- Solubility (% wt) (tacrolimus in Heptylmethylnonane): 0.006 % wt
- Solubility (% wt) (tacrolimus in Isopropyl isostearate): 0.19 % wt
- Solubility (% wt) (tacrolimus in Isopropyl myristate): 0.25 % wt
- Solubility (% wt) (tacrolimus in Isopropyl palmitate): 0.26 % wt
- Solubility (% wt) (tacrolimus in Mineral oil): 0.003 % wt
